# Source: PMC8459971, “Evaluation of the hepatotoxicity of the novel GPR40 (FFAR1) agonist CPL207280 in the rat and monkey” (PLoS ONE, 2021)
# Values joined by “and” are separate entries in the source; they are usually repeats but may differ in a detail not shown here. Identical values can stand only once. Like-named read-outs stand apart in the source and are kept apart here.
# Columns and labels:
# [1] = Single-dose pharmacokinetics in monkeys (p.o. and i.v.); format: in vivo, monkey; conditions: for bioavailability: p.o. vs i.v., read-out: F (bioavailability)
# [2] = Repeat-dose study in diabetic ZDF rats, serum ALT and AST; format: in vivo, rat; conditions: 15 and 45 mg/kg/day, 42 days
# Description: Male ZDF rats (n = 8) and ZL rats (n = 8) were aged 9 weeks and were housed 2–3 per cage within a small animal facility in accordance with the guidelines approved by the Association for Assessment and Accreditation of Laboratory Animal Care. […] All animals had ad libitum access to water during the entire study period. The animals were fed a diet of Purina Rodent LabDiet 5C08, equivalent to LabDiet 5008. Treatment-grouped rats (N = 8) underwent oral gavage with the test compound or vehicle at 10 mL/kg for 6 weeks. For fasting blood levels of ALT and AST after overnight fasting, blood was collected from the jugular vein or through a cardiac puncture (on the day of euthanasia, the last day of the study). Blood was collected in AXYGEN microtubes (MCT-150-C) for clinical blood chemistry measurements. Next, the sample was allowed to clot for a minimum of 30 min at room temperature and then centrifuged at 4°C and 4000 x g for 10 min. The resultant serum was transferred into three pre-labeled AXYGEN microtubes for blood chemistry analysis using the ADVIA 2400 chemistry system. Rats were euthanized by overdose of CO2 followed by decapitation.
# [3] = Repeat-dose study in diabetic cynomolgus monkeys, serum ALT and AST; format: in vivo; conditions: 2.2 and 22 mg/kg, 28 treatment days
# Description: All animals aged 8–20 years had ad libitum access to water and were fed twice daily with a complete nutritionally balanced diet (Beijing Keao Xieli Feed Co., LTD, Beijing, China) enriched with seasonal fruits. The cynomolgus monkeys used in the study were cared for and handled in accordance with all applicable Association for Assessment and Accreditation of Laboratory Animal Care regulations and guidelines. […] After each treatment (weighing, bleeding, or dosing), the animals were clinically observed on the day of the procedure and, if previously anesthetized, the animals were monitored to stand up and alert. Nine selected diabetic animals were subjected to daily test compound (powder) dosing via natural feeding with bananas (n = 3). Blood from overnight-fasted animals was collected weekly in the morning for measurement of serum ALT and AST levels on days 0, 7, 14, 21, 28, and 35. Blood samples (1.5 mL) were collected from a cephalic or saphenous vein into BD Vacutainer® and K2-EDTA tubes.
# HepaRG spheroids = experiment: HepaRG 3D spheroids, cell and mitochondrial health markers, 14 days; conditions: TIMEPOINT 336
smiles,measurement,setting,value
CC#C[C@@H](CC(=O)O)c1ccc(OCC(C)=C(C)C)cc1 [CPL207280],Cmax,"[1]; cynomolgus, monkey, plasma, 6 mg/kg, monkey, dose 6 mg/kg, Day 1, individual animals",0.199 µg/mL
same,plasma conc,"[1]; monkey, 0,5 mg/kg i.v., 0.5 h, single animals",643.5 and 572.2
same,plasma conc,"[1]; monkey, 0,5 mg/kg i.v., 1 h, single animals",149.8 and 119.5
same,plasma conc,"[1]; monkey, 0,5 mg/kg i.v., 2 h, single animals",95.2 and 24.4 and 69.6
same,plasma conc,"[1]; monkey, 0,5 mg/kg i.v., 4 h, single animals",49.5 and 52.7 and 23.2
same,plasma conc,"[1]; monkey, 0,5 mg/kg i.v., 6 h, single animals",17.1 and 41 and 11.9
same,plasma conc,"[1]; monkey, 0,5 mg/kg i.v., 8 h, single animals",17.5 and 13.5
same,plasma conc,"[1]; monkey, 0,5 mg/kg i.v., 12 h, single animals",6.2 and 10.5 and 4
same,plasma conc,"[1]; monkey, 0,5 mg/kg i.v., 24 h, single animals",1.1 and 1.6 and 0
same,plasma conc,"[1]; monkey, 1,5 mg/kg p.o., 0 h, single animals",0
same,plasma conc,"[1]; monkey, 1,5 mg/kg p.o., 0.5 h, single animals",806.5 and 1491 and 408.8
same,plasma conc,"[1]; monkey, 1,5 mg/kg p.o., 1 h, single animals",1309.1 and 1299.9
same,plasma conc,"[1]; monkey, 1,5 mg/kg p.o., 2 h, single animals",1251.6 and 605.2 and 1177.7
same,plasma conc,"[1]; monkey, 1,5 mg/kg p.o., 4 h, single animals",75.2 and 203.9 and 54.2
same,plasma conc,"[1]; monkey, 1,5 mg/kg p.o., 8 h, single animals",31 and 109.7 and 13.2
same,plasma conc,"[1]; monkey, 1,5 mg/kg p.o., 12 h, single animals",13.7 and 53.4 and 8.1
same,plasma conc,"[1]; monkey, 1,5 mg/kg p.o., 24 h, single animals",1.6 and 5.3 and 0
same,exposure - AUC,"[1]; monkey, dose 6 mg/kg, Day 1, individual animals, 6 mg/kg",31.225 µg·h/mL and 16.287 µg·h/mL
same,AUC,"[1]; monkey, plasma, 6 mg/kg, monkey, dose 6 mg/kg, Day 1, individual animals, read-out: exposure - AUC",18.2 µg·h/mL
same,concentration at 0.5 h,"[1]; monkey, plasma, intravenous, 0.5 mg/kg, monkey, 0,5 mg/kg i.v., 0.5 h, single animals, read-out: plasma conc",0.704 µg/mL
same,concentration at 1 h,"[1]; monkey, plasma, intravenous, 0.5 mg/kg, monkey, 0,5 mg/kg i.v., 1 h, single animals, read-out: plasma conc",0.198 µg/mL
same,concentration at 8 h,"[1]; monkey, plasma, intravenous, 0.5 mg/kg, monkey, 0,5 mg/kg i.v., 8 h, single animals, read-out: plasma conc",0.0102 µg/mL
same,k el,"[1]; monkey, plasma, intravenous, monkeys, single dose",5.56e-05 s⁻¹
same,Cmax,"[1]; monkey, plasma, iv, 0.5 mg/kg, monkeys, 0,5 mg/kg i.v., n = 3",3.12 ± 0.161 µg/mL
same,Tmax,"[1]; monkey, plasma, iv, 0.5 mg/kg, monkeys, 0,5 mg/kg i.v.",4.98 min
same,AUC,"[1]; monkey, plasma, iv, 0.5 mg/kg, monkeys, 0,5 mg/kg i.v., read-out: AUC",1.37 ± 0.194 µg·h/mL
same,concentration at 0 h,"[1]; monkey, plasma, oral, 1.5 mg/kg, monkey, 1,5 mg/kg p.o., 0 h, single animals, read-out: plasma conc",0 µg/mL
same,concentration at 1 h,"[1]; monkey, plasma, oral, 1.5 mg/kg, monkey, 1,5 mg/kg p.o., 1 h, single animals, read-out: plasma conc",2.25 µg/mL
same,bioavailability,"[1]; monkey, plasma, oral, 1.5 mg/kg, monkeys",~99%
same,Cmax,"[1]; monkey, plasma, po, 1.5 mg/kg, monkeys, 1,5 mg/kg p.o., n = 3",1.68 ± 0.502 µg/mL
same,Tmax,"[1]; monkey, plasma, po, 1.5 mg/kg, monkeys, 1,5 mg/kg p.o.",60 min
same,AUC,"[1]; monkey, plasma, po, 1.5 mg/kg, monkeys, 1,5 mg/kg p.o., read-out: AUC",4.06 ± 0.794 µg·h/mL
same,bioavailability,"[1]; monkey, plasma, po, 1.5 mg/kg, monkeys",99%
same,ALT and AST levels vs vehicle-treated ZDF group,[2],failed to alter the ALT and AST levels
same,"liver safety markers (ALT, AST) vs vehicle group",[3],none of the doses altered liver safety markers
same,Cellular ATP Mean Plotted Value,HepaRG spheroids; CONC 0.0457 uM,0.883
same,DNA structure Mean Plotted Value,HepaRG spheroids; CONC 0.0457 uM,1.26
same,Glutathione content Mean Plotted Value,HepaRG spheroids; CONC 0.0457 uM,0.866
same,Mitochondrial mass Mean Plotted Value,HepaRG spheroids; CONC 0.0457 uM,0.982
same,Mitochondrial membrane potential Mean Plotted Value,HepaRG spheroids; CONC 0.0457 uM,1.25
same,Oxidative stress Mean Plotted Value,HepaRG spheroids; CONC 0.0457 uM,1.15
same,Spheroid count Mean Plotted Value,HepaRG spheroids; CONC 0.0457 uM,1
same,Spheroid size Mean Plotted Value,HepaRG spheroids; CONC 0.0457 uM,0.924
same,Cellular ATP Mean Plotted Value,HepaRG spheroids; CONC 0.137 uM,1.01
same,DNA structure Mean Plotted Value,HepaRG spheroids; CONC 0.137 uM,1.14
same,Glutathione content Mean Plotted Value,HepaRG spheroids; CONC 0.137 uM,1.11
same,Mitochondrial mass Mean Plotted Value,HepaRG spheroids; CONC 0.137 uM,0.911
same,Mitochondrial membrane potential Mean Plotted Value,HepaRG spheroids; CONC 0.137 uM,0.948
same,Oxidative stress Mean Plotted Value,HepaRG spheroids; CONC 0.137 uM,1.02
same,Spheroid count Mean Plotted Value,HepaRG spheroids; CONC 0.137 uM,1
same,Spheroid size Mean Plotted Value,HepaRG spheroids; CONC 0.137 uM,0.943
same,Cellular ATP Mean Plotted Value,HepaRG spheroids; CONC 0.412 uM,1.03
